Measurements published in patent US20110195505A1, “BACTERIAL STRAINS FOR BUTANOL PRODUCTION” (priority 2009, published 2011).
Marks after values point to notes of the source that are not given here.

How the values were obtained:
[1] = test system: BP63 (L. plantarum PN0512ΔpyrFΔfabZ1); assay: Fatty acid supplements supporting growth of the fabZ1 mutant; format: cell-based; settings: fatty acid supplied at 80 mg/L; overnight incubation, OD600
Protocol: With 100 or 200 mg/liter of oleic acid the growth of BP63 was equivalent to that of the fabZ1^+ control strain, BP15. […] Thus, we conclude that fabZ1 in L. plantarum has the same function as FabN in E. faecalis (Wang, H. and Cronan, J. E. 2004. Functional replacement of the FabA and FabB proteins of Escherichia coli fatty acid synthesis by Enterococcus faecalis FabZ and FabF homologs. J. Biol. Chem. 279, 34489-95). To further test the range of fatty acid supplements that support growth of the fabZ1 mutant, several other fatty acids were supplied at 80 mg/L to the semi-synthetic LAB medium as described above. BP63 and the parental control BP15 were inoculated from the working stocks. After overnight incubation, the OD600 was measured. The growth of BP15 was not inhibited by any of the fatty acids tested. The Table 9 below summarizes the results for the fabZ1 mutant strain, BP63.

[2] = test system: L. plantarum strain PN0512; assay: Growth yield (OD600) in isobutanol, stearic acid fed and unfed cultures; format: cell-based, Lactobacillus plantarum; settings: for OD600 fed Stearic: stearic acid 50 mg per liter, 25 hours, 30° C.
Protocol: For growth yield experiments, 5 ml of medium with test fatty acids (10-500 mg per liter) and varying concentrations of isobutanol in 15 ml screw cap tubes was inoculated with 12.5 μl of the working stock giving an initial OD600 of 0.012. The caps were tightly sealed and incubated at 30° C. on a roller drum for 20 to 26 hours, at which time 1.0 ml was removed and OD600 was measured with a blank of medium amended with the fatty acid. All solvent concentrations are reported as % (w/v).
Growth of L. plantarum cultures in the media described in General Methods and containing varying concentrations of isobutanol was measured and compared with the cultures fed (supplemented with) stearic acid at a final concentration of 50 mg per liter of medium. Cultures were prepared as described in General Methods.

[3] = test system: L. plantarum strain PN0512; assay: FAME analysis of membrane lipids of stearic acid fed cultures; format: cell-based, Lactobacillus plantarum
Protocol: The membrane lipids were extracted by modified Bligh and Dyer protocol (Can. J. Biochem. Physiol. (1959) 37:911-17). The cell pellet prepared as described above was suspended in a mixture of 0.5 ml CHCl3 and 1 ml CH3OH, and transferred to a 13×100 mm tube with a screw top cap. The cap was screwed on about ¾ of the way (i.e., not tight), and the tube was incubated at 40° C. for 30 min. The tube was cooled and an additional 0.5 ml CHCl3 and 1 ml H2O were added the mixture. […] The two phases were equilibrated by vortexing. The two phases were allowed to separate; then the lower CHCl3 layer was removed and transferred to another 13×100 mm tube with a screw top cap. With the cap removed, the CHCl3 was evaporated under a stream of N2. Methyl esters of the fatty acids in the residue were then formed using one of the following procedures.
1 ml freshly made 1.0 M CH3ONa in CH3OH was added to the tubes containing lipid samples extracted by the Bligh and Dyer method as described above. The caps were placed on tubes, screwed on about ¾ of the way (i.e., not tight), then the tubes were heated at 60° C. for 30 minutes. The mixture was chilled in ice bath and 1 ml of 1.0 N HCl was added to the solution in the tubes. The pH of the resulting solution was checked with pH paper to make sure a pH of 7 or lower had been reached. 0.5 ml hexane was added into the test tube and mixed well by vortexing. The tubes were allowed to sit for a few minutes until two phases formed. The top hexane layer was removed and placed in a separate tube for storage until analysis, which was done by GC/FID and/or GC/MS. 2 μl of the hexane layer was injected into an Agilent GC (model 6890)/MS (model 5973). For routine samples a Supelco Equity-1 column (15 m×0.25 mm×0.25 μm film thickness; catalog #28045-U) was used with an FID detector (GC/FID). When an unknown peak needed to be identified, the same column was used with an Agilent MSD detector (GC/MS). When samples requiring difficult separations that were impossible to achieve on a 15 m column were analyzed (e.g., the separation of oleic from elaidic acid), a Supelco S-2380 column (100 m×0.25 mm×0.25 μm film thickness; catalog #24317) was used.
For preparation of samples for FAME analysis, the working stock was used to inoculate 40 ml of medium containing free fatty acids and the cultures were grown overnight. The cell pellet was harvested by centrifugation and was washed twice with phosphate buffered saline (PBS, Bio-Rad Laboratories, Hercules, Calif.) and 5 g/l BSA, then two more times with PBS. Cell pellets were stored at −80° C. until analyzed by FAME using a transesterification protocol, which quantifies fatty acids that have been incorporated in membrane lipids, but not free fatty acids associated with the cell membrane. The FAME analysis is described by Christie (1993) (In Advances in Lipid Methodology—Two, pp. 69-111, Ed. W. W. Christie, Oily Press, Dundee).
Cultures of Lactobacillus plantarum strain PN0512 were grown in media containing stearic acid along with control cultures (with no added fatty acids to the media), as described in General Methods. The membrane composition was analyzed by FAME analysis as described in General Methods as well. The results of FAME analyses shown in Table 6 indicate that stearic acid (C18:0), when added to the growth medium of a culture of strain PN0512, was incorporated into the cell membrane thereby resulting in a substantial increase of the amount of stearic fatty acid in the cell membrane.

CCCCCCCCCCCCCCCCCC(=O)O [Stearic Acid, Octadecanoic Acid]
Supports growth of BP63 [1]: no
OD600 Ratio OD600fed/OD600unfed control ([2]; 0 % w/v isobutanol): 1.08
OD600 fed Stearic ([2]; 0 % w/v isobutanol): 1.452
OD600 Ratio OD600fed/OD600unfed control ([2]; 2.3 % w/v isobutanol): 1.18
OD600 fed Stearic ([2]; 2.3 % w/v isobutanol): 0.860
OD600 Ratio OD600fed/OD600unfed control ([2]; 2.5 % w/v isobutanol): 1.23
OD600 fed Stearic ([2]; 2.5 % w/v isobutanol): 0.422
OD600 Ratio OD600fed/OD600unfed control ([2]; 2.7 % w/v isobutanol): 1.57^b
OD600 fed Stearic ([2]; 2.7 % w/v isobutanol): 0.206
OD600 Ratio OD600fed/OD600unfed control ([2]; 2.9 % w/v isobutanol): 1.92
OD600 fed Stearic ([2]; 2.9 % w/v isobutanol): 0.098
growth yield of stearic acid fed cultures compared with control cultures ([2]; all tested concentrations of isobutanol): greater
Membrane Fatty Acid Effect (stearic acid fed)/(stearic acid not fed), C16:0 ([3]; ratio of molar %): 0.52
Membrane Fatty Acid Effect (stearic acid fed)/(stearic acid not fed), C16:1 ([3]; ratio of molar %): 1.30
Membrane Fatty Acid Effect (stearic acid fed)/(stearic acid not fed), C18:0 ([3]; ratio of molar %): 33.2
Membrane Fatty Acid Effect (stearic acid fed)/(stearic acid not fed), C18:1, cis ([3]; ratio of molar %): 0.78
Membrane Fatty Acid Effect (stearic acid fed)/(stearic acid not fed), cyc-C19:0 ([3]; ratio of molar %): 1.23
Membrane Fatty Acid Content, C16:0 ([3]; stearic acid (C18:0) fed): 14.1 molar %
Membrane Fatty Acid Content, C16:1 ([3]; stearic acid (C18:0) fed): 10.0 molar %
Membrane Fatty Acid Content, C18:0 ([3]; stearic acid (C18:0) fed): 16.6 molar %
Membrane Fatty Acid Content, C18:1, cis ([3]; stearic acid (C18:0) fed): 34.4 molar %
Membrane Fatty Acid Content, cyc-C19:0 ([3]; stearic acid (C18:0) fed): 25.0 molar %
increase of molar % of stearic acid in the cell membrane ([3]; with stearic acid feeding): more than 30 fold
increase of molar ratio saturated/unsaturated fatty acids ([3]; with stearic acid feeding): 16%
molar ratio of saturated fatty acids (C16:0 and C18:0) to unsaturated fatty acids (C16:1 and C18:1, cis) ([3]; with stearic acid feeding (0.53 without)): 0.69
